Assay results from PubChem BioAssay (NCI).
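Exposure lasted 48 hours, with cells grown in 96-well plates and compounds tested at five concentrations. GI50 = concentration required for 50% inhibition of growth. The concentration for full growth arrest is given as TGI.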

Columns and labels:
Test in all cases: NCI anticancer screen, dose series, 48 h
T-47D breast = tested on: T-47D breast
SW-620 colon = tested on: SW-620 colon
NCI-H522 lung = tested on: NCI-H522 lung
M14 melanoma = tested on: M14 melanoma
MDA-MB-435 = tested on: MDA-MB-435
HOP-92 NSCLC = tested on: HOP-92 NSCLC
SF-295 CNS = tested on: SF-295 CNS
SK-MEL-2 melanoma = tested on: SK-MEL-2 melanoma
SK-MEL-28 melanoma = tested on: SK-MEL-28 melanoma
A498 renal = tested on: A498 renal

| SMILES | TGI (T-47D breast) [µM] | TGI (SW-620 colon) [µM] | TGI (NCI-H522 lung) [µM] | TGI (M14 melanoma) [µM] | TGI (MDA-MB-435) [µM] | TGI (HOP-92 NSCLC) [µM] | TGI (SF-295 CNS) [µM] | TGI (SK-MEL-2 melanoma) [µM] | TGI (SK-MEL-28 melanoma) [µM] | TGI (A498 renal) [µM] | GI50 (T-47D breast) [µM] | GI50 (SW-620 colon) [µM] | GI50 (A498 renal) [µM] | GI50 (NCI-H522 lung) [µM] | GI50 (M14 melanoma) [µM] | GI50 (MDA-MB-435) [µM] | GI50 (SF-295 CNS) [µM] | GI50 (SK-MEL-2 melanoma) [µM] | GI50 (SK-MEL-28 melanoma) [µM] | GI50 (HOP-92 NSCLC) [µM] |
| --- | --- | --- | --- | --- | --- | --- | --- | --- | --- | --- | --- | --- | --- | --- | --- | --- | --- | --- | --- | --- |
| Cc1ccc2c(c1)C(O)(c1ccccc1)CCS2 (stereo not given) | > 100 | > 100 | 44.6 | 66.9 | 73.2 | 77.9 | 80.3 | 80.4 | > 100 |  |  |  |  |  |  |  |  |  |  |  |
| COc1ccc(/C=C/c2nc(=S)[nH][nH]2)cc1OC |  | > 100 |  | > 100 |  | > 100 | > 100 | > 100 | > 100 | > 100 |  |  |  |  |  |  |  |  |  |  |
| Nc1cc(N)c2nc(-c3ccccc3)c(NCc3ccc(Cl)c(Cl)c3)nc2c1 | 54.4 | 9.88 | 4.91 | 34.6 | 7.56 |  | 37.2 | 4.26 | 41.7 | 32.4 | 19.4 | 3.26 | 17.4 | 2.05 | 15.7 | 2.74 | 15.5 | 1.91 | 18.8 |  |
| O=C1C2C3C=C4c5ccccc5N(c5ccccc5)C4([C@@H]2C(=O)N1c1ccc(F)cc1)[C@H]1C(=O)N(c2ccc(F)cc2)C(=O)[C@@H]31 (stereo not given in full) |  | > 100 | > 100 | > 100 |  | > 100 | > 100 | > 100 | > 100 |  |  |  |  |  |  |  |  |  |  |  |
| CC(=O)O[C@H]1CC[C@]2(C)C3C(=O)C[C@]4(C)[C@@H](C(C)CCC(=O)O)CC[C@@]4(C)[C@@H]3CC[C@H]2C1(C)C (stereo not given in full) |  | > 50 | > 50 | > 50 | 33.8 | > 50 | > 50 | > 50 | > 50 | > 50 |  | 19.4 | 22.2 | > 50 | 20.5 | 13.5 | 17.9 | 45.8 | 28.6 | 36.8 |
| O=C1c2ccccc2C(=O)c2sc(Nc3ccc([N+](=O)[O-])cc3)nc21 | 6.81 | 8.48 | 6.35 | 5.91 |  | 28.6 | 24.7 | 34.1 | 25.7 | 34.8 |  |  |  |  |  |  |  |  |  |  |
| CNC(=O)NCCN1N=C(C)/C(=C\c2ccccc2)CC1=O |  | > 100 | > 100 | > 100 |  | > 100 | > 100 | > 100 | > 100 | > 100 |  |  |  |  |  |  |  |  |  |  |
| CCOC(=O)c1cc2c(n1Cc1cc(OC)cc(OC)c1)-c1oncc1CC2 | > 100 | > 100 | > 91.5 | > 100 |  | > 100 |  | > 100 | > 100 | 0.779 | 31.1 | 0.0859 | 0.0532 | 0.0404 | 0.163 |  | 0.0518 | > 100 | 0.25 | 45.2 |
| N#CC(C#N)=C1CCC2C(=C(C#N)C#N)CCC12 (stereo not given) |  | > 100 | > 100 | > 100 |  | > 100 | > 100 |  |  | > 100 |  |  |  |  |  |  |  |  |  |  |
| N#CC1=C(c2ccccc2)OC2(N)OC(c3ccccc3)=C(C#N)C12C#N (stereo not given) |  | > 100 |  | > 100 |  |  | > 100 | > 100 | > 100 | > 100 |  |  |  |  |  |  |  |  |  |  |
